# Source: patent US7511026B2, “Therapeutic agent for nerve damage” (Seikagaku Corporation, priority 2003, dated 2009)
# Columns and labels:
# Type in all cases: in vivo, Wister rats
# [1] = system: spinal cord injury model; experiment: Evaluation on performance status (walking) after spinal cord injury; details: 7 days after the administration; PBS-administered group showed difficulty in walking
# Experimental: (§1) Wister rats (SPF, male) were used as animals, and each body was shaved from the neck to the hip using an electric hair clipper under pentobarbital (50 mg/kg weight) anesthesia and cleaned with 70% ethanol and Isodine (manufactured by Meiji Seika Kaisha, Ltd.). The dorsal skin was incised to expose thoracic vertebra from T5 to T10, and hemilaminectomy of the sixth thoracic vertebra (T6 thoracic vertebra) was performed to make a small incision in the dura mater, followed by regional anesthesia with xylocaine (manufactured by Astra Zeneca). Subsequently, two models were prepared as follows: a spatula (the tip of which had been processed into 0.3 mm) was inserted to the T6 position from the dorsal until the tip reached the abdominal centrum and maintained for 10 minutes to injure the spinal cord (slightly injured model), while a tweezer (the tip of which had been processed into 0.3 mm) was inserted until the tip reached the abdominal centrum, and the portion was pinched from both sides for 10 seconds to injure the spinal cord (seriously injured model). A respirator was used only when spinal cord evoked potentials were measured. The respirator was inserted into the windpipe under 1.0 to 2.0% halothane anesthesia and stabilized with a muscle relaxant. […]
# [2] = system: spinal cord injury, slightly injured model; experiment: Spinal cord evoked potential (SCEP), slightly injured model; details: HA4 60 μg/animal/day, 7 days after injury
# Experimental: (§2) Wister rats (SPF, male) were used as animals, and each body was shaved from the neck to the hip using an electric hair clipper under pentobarbital (50 mg/kg weight) anesthesia and cleaned with 70% ethanol and Isodine (manufactured by Meiji Seika Kaisha, Ltd.). The dorsal skin was incised to expose thoracic vertebra from T5 to T10, and hemilaminectomy of the sixth thoracic vertebra (T6 thoracic vertebra) was performed to make a small incision in the dura mater, followed by regional anesthesia with xylocaine (manufactured by Astra Zeneca). […] A respirator was used only when spinal cord evoked potentials were measured. […]
# (§3) 7 days after the spinal cord injury, the spinal cord evoked potentials were determined. […] Then, the spinal cord evoked potential (SCEP) was measured, and the “mean±SD” was calculated. The resultant potentials were evaluated using the amplitude of the first potential as an indicator. […]
# [3] = system: spinal cord injury, seriously injured model (I); experiment: Spinal cord evoked potential (SCEP), seriously injured model (I); details: for SCEP amplitude (first potential): 7 days after injury, vs PBS-administered group
# Experimental: Wister rats (SPF, male) were used as animals, and each body was shaved from the neck to the hip using an electric hair clipper under pentobarbital (50 mg/kg weight) anesthesia and cleaned with 70% ethanol and Isodine (manufactured by Meiji Seika Kaisha, Ltd.). The dorsal skin was incised to expose thoracic vertebra from T5 to T10, and hemilaminectomy of the sixth thoracic vertebra (T6 thoracic vertebra) was performed to make a small incision in the dura mater, followed by regional anesthesia with xylocaine (manufactured by Astra Zeneca). Subsequently, two models were prepared as follows: a spatula (the tip of which had been processed into 0.3 mm) was inserted to the T6 position from the dorsal until the tip reached the abdominal centrum and maintained for 10 minutes to injure the spinal cord (slightly injured model), while a tweezer (the tip of which had been processed into 0.3 mm) was inserted until the tip reached the abdominal centrum, and the portion was pinched from both sides for 10 seconds to injure the spinal cord (seriously injured model). A respirator was used only when spinal cord evoked potentials were measured. The respirator was inserted into the windpipe under 1.0 to 2.0% halothane anesthesia and stabilized with a muscle relaxant.
# After the injury, HA4 (6 μl) was immediately administered using a microsyringe (25 μl; manufactured by Ito Seisakusyo Co., Ltd.) into the dura mater. Thereafter, the tip (OD: 0.3 mm) of a tube that was filled with HA4 and connected with an osmotic pump (model 1002, manufactured by Alzet) was placed under the dura mater of the rostral in the injured portion, and HA4 was continuously administered for 7 days. […]
# as §3
# [4] = system: spinal cord injury, seriously injured model (II); experiment: Spinal cord evoked potential (SCEP), seriously injured model (II); details: HA4 6.0 μg/animal/day, vs physiological saline-administered group, p<0.05
# Experimental: as §2, §3
# [5] = system: spinal cord injury, slightly injured model; experiment: Histopathologic evaluation of injured spinal cord (Kluver-Barrera staining), slightly injured model
# Experimental: as §1, with “relaxant. After the injury, HA4 (6 μl) was immediately administered using a microsyringe (25 μl; manufactured by Ito Seisakusyo Co., Ltd.) into the dura mater. Thereafter, the tip (OD: 0.3 mm) of a tube that was filled with HA4 and connected with an osmotic pump (model 1002, manufactured by Alzet) was placed under the dura mater of the rostral in the injured portion, and HA4 was continuously administered for 7 days. Meanwhile, 5 minutes, 2 hours, 4 hours, and 6 hours after the injury, 30 mg/kg of methylprednisolone sodium succinate (MPSS, manufactured by Pharmacia) was administered into the tail vein as a positive control. For separating the injured portion from the surrounding tissues, a gelatin sponge (Gelform; manufactured by Pharmacia) was placed, and the rat was brought back to a feeding gauge after the wound had been sewn.” for “relaxant.”
# [6] = system: spinal cord injury, severely injured model (II); experiment: Balance beam and metal gauze crossing tests, severely injured model (II); details: 7 days after spinal cord injury, mean of four crossings, P<0.0001 vs physiological saline-administered group
# Experimental: Wister rats (SPF, male) were used as animals, and each body was shaved from the neck to the hip using an electric hair clipper under pentobarbital (50 mg/kg weight) anesthesia and cleaned with 70% ethanol and Isodine (manufactured by Meiji Seika Kaisha, Ltd.). The dorsal skin was incised to expose thoracic vertebra from T5 to T10, and hemilaminectomy of the sixth thoracic vertebra (T6 thoracic vertebra) was performed to make a small incision in the dura mater, followed by regional anesthesia with xylocaine (manufactured by Astra Zeneca). Subsequently, two models were prepared as follows: a spatula (the tip of which had been processed into 0.3 mm) was inserted to the T6 position from the dorsal until the tip reached the abdominal centrum and maintained for 10 minutes to injure the spinal cord (slightly injured model), while a tweezer (the tip of which had been processed into 0.3 mm) was inserted until the tip reached the abdominal centrum, and the portion was pinched from both sides for 10 seconds to injure the spinal cord (seriously injured model). A respirator was used only when spinal cord evoked potentials were measured. […] Then, the numbers of slips in the hind limb were recorded, and evaluated by the mean value (FIG. 12). As for the sham surgery group prepared by making a small incision in the dura mater (Sham), the number of slips in the hind limb was also determined.
# [7] = system: spinal cord injury, severely injured model (II); experiment: Hind limb motor function test (BBB scale), severely injured model (II); details: HA4 6 μg/day, over 1 to 7 days after the spinal cord injury, P<0.0001 vs physiological saline-administered group
# Experimental: Wister rats (SPF, male) were used as animals, and each body was shaved from the neck to the hip using an electric hair clipper under pentobarbital (50 mg/kg weight) anesthesia and cleaned with 70% ethanol and Isodine (manufactured by Meiji Seika Kaisha, Ltd.). The dorsal skin was incised to expose thoracic vertebra from T5 to T10, and hemilaminectomy of the sixth thoracic vertebra (T6 thoracic vertebra) was performed to make a small incision in the dura mater, followed by regional anesthesia with xylocaine (manufactured by Astra Zeneca). Subsequently, two models were prepared as follows: a spatula (the tip of which had been processed into 0.3 mm) was inserted to the T6 position from the dorsal until the tip reached the abdominal centrum and maintained for 10 minutes to injure the spinal cord (slightly injured model), while a tweezer (the tip of which had been processed into 0.3 mm) was inserted until the tip reached the abdominal centrum, and the portion was pinched from both sides for 10 seconds to injure the spinal cord (seriously injured model). A respirator was used only when spinal cord evoked potentials were measured. […] According to the method described by Basso et al., two test examiners individually evaluated blindly using the Basso-Beeattie-Bresnahan (BBB) scale, and the mean values were defined as the final score (FIG. 13).
smiles,measurement,setting,value
"CC(=O)N[C@H]1[C@H](O[C@H]2[C@H](O)[C@@H](O)[C@H](O[C@H]3[C@H](O)[C@@H](CO)OC(O)[C@@H]3NC(C)=O)O[C@@H]2C(=O)O)O[C@H](CO)[C@@H](O)[C@@H]1O[C@@H]1O[C@H](C(=O)O)[C@@H](O)[C@H](O)[C@H]1O (stereo partly shown) [HA4, GlcA-GlcNAc-GlcA-GlcNAc]",performance status (walking),[1],walking approximately similar to that of the normal rat was observed
same,SCEP amplitude level relative to normal (no injury-no treatment group),[2],the same as the normal level
same,SCEP amplitude (first potential),"[2]; intradural, continuous 7 days, vs PBS-administered group, p<0.05",decrease of SCEP amplitude was significantly attenuated or the SCEP amplitude was recovered
same,SCEP amplitude (first potential),"[3]; HA4 0.6 μg/animal/day, p<0.05",decrease of the SCEP amplitude was significantly attenuated or the SCEP amplitude was recovered
same,SCEP effect compared with MPSS,"[3]; HA4 6 μg/animal/day vs MPSS 30 mg/kg x 4 times, tail vein",stronger effect than that of MPSS
same,SCEP amplitude (first potential),"[3]; HA4 6 μg/animal/day, p<0.001, same level as the normal level",decrease of the SCEP amplitude was significantly attenuated or the SCEP amplitude was recovered
same,SCEP amplitude,[4],significantly recovered
same,number of axons crossing from white matter to gray matter,"[5]; 5 mm range in the rostral/caudal direction in the injured site, vs physiological saline-administered group",significantly larger
same,"tissue injury, edema and myelin loss in white matter","[5]; Kluver-Barrera staining, PBS group showed edema and myelin loss 1 cm or more from the injured site","the tissue injury was present only near the injured site, and edema and myelin loss were rarely observed in white matter"
same,injured area (damaged area),"[5]; coronal plane including the central canal, vs PBS-administered group",significantly smaller
same,"number of slips in the hind limb, balance beam crossing",[6],significantly low
same,"number of slips in the hind limb, metal gauze crossing",[6],significantly low
same,motor function in the hind limb (BBB scale),[7],significantly recovered
